According to patent publication US20260028423A1, “PREDICTION OF AN INCREASE OF DPP3 IN A PATIENT WITH SEPTIC SHOCK” (4TEEN4 Pharmaceuticals GmbH, priority 2022, published 2026):
“Also recorded” adds a separate entry of the source. Where two headings read alike, the source gives them in different places.

What was measured:
[1] = target: T1, Recombinant GST-tagged hDPP3 (Homo sapiens, UniProt Q9NY33); test: hDPP3 binding assay (labelled antibody, immobilized antigen, RLU); conditions: immobilized GST-hDPP3 1 μg/well
T1 construct: purchased USBio (United States Biological, Salem, MA, USA)
T1 sequence (Q9NY33 1-737): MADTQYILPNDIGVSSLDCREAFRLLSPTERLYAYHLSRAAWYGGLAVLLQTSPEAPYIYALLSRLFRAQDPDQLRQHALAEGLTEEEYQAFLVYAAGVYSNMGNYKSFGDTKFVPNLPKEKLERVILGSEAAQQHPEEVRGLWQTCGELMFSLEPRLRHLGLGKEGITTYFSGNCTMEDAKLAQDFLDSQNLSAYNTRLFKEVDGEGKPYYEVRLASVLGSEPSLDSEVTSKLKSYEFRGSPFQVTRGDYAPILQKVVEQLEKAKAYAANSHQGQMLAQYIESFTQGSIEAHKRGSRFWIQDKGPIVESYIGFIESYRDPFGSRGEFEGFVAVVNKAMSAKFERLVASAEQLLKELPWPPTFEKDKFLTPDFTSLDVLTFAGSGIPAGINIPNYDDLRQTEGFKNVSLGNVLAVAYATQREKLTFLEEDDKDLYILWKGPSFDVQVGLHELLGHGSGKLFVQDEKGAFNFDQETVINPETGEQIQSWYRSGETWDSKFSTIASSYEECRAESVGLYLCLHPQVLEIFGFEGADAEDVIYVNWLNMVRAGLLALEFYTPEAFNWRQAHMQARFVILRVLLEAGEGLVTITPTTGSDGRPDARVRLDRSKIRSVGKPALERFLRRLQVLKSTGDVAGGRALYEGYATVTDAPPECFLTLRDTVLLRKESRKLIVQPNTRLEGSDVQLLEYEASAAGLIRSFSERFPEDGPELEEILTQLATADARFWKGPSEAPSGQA
Description: To analyze the capability of DPP3/immunization peptide binding by the different antibodies and antibody clones a binding assay was performed:
Solid phase: Recombinant GST-tagged hDPP3 (SEQ ID NO. 36) or a DPP3 peptide (immunization peptide, SEQ ID NO. 37) was immobilized onto a high binding microtiter plate surface (96-Well polystyrene microplates, Greiner Bio-One international AG, Austria, 1 μg/well in coupling buffer [50 mM Tris, 100 mM NaCl, pH7,8], 1 h at RT). After blocking with 5% bovine serum albumin, the microplates were vacuum dried.
Labelling procedure (tracer): 100 μg (100 μl) of the different antiDPP3 antibodies (detection antibody, 1 mg/ml in PBS, pH 7.4) were mixed with 10 μl acridinium NHS-ester (1 mg/ml in acetonitrile, InVent GmbH, Germany; EP 0 353 971) and incubated for 30 min at room temperature. […] The final concentration was approx. 5-7*10^6 relative light units (RLU) of labelled compound (approx. 20 ng labelled antibody) per 200 μl. acridinium ester chemiluminescence was measured by using a Centro LB 960 luminometer (Berthold Technologies GmbH & Co. KG).
hDPP3 binding assay: the plates were filled with 200 μl of labelled and diluted detection antibody (tracer) and incubated for 2-4 h at 2-8° C. […] Well-bound chemiluminescence was measured by using the Centro LB 960 luminometer (Berthold Technologies GmbH & Co. KG).

Male Wistar rats = test: CLP model of septic shock, sepsis-induced heart failure rats; assay type: in vivo, rat; conditions: vs CLP+PBS
Description: Male Wistar rats (2-3 months, 300 to 400 g, group size refers to table 9) from the Centre d'élevage Janvier (France) were allocated randomly to one of three groups. All the animals were anesthetized using ketamine hydrochloride (90 mg/kg) and xylazine (9 mg/kg) intraperitoneally (i.p.). For induction of polymicrobial sepsis, cecal ligation and puncture (CLP) was performed using Rittirsch's protocol with minor modification. A ventral midline incision (1.5 cm) was made to allow exteriorization of the cecum. The cecum is then ligated just below the ileocecal valve and punctured once with an 18-gauge needle. The abdominal cavity is then closed in two layers, followed by fluid resuscitation (3 ml/100 g body of weight of saline injected subcutaneously) and returning the animal to its cage. Sham animals were subjected to surgery, without getting their cecum punctured. CLP animals were randomized between placebo and therapeutic antibody.
The study flow is depicted in FIG. 8. After CLP or sham surgery the animals were allowed to rest for 20 hours with free access to water and food. […] As a safety measure, hemodynamics were monitored invasively and continuously from t=0 till 3 h. […]
Grey scale images were recorded at a depth of 2 cm. […] LVFS was calculated as LV end-diastolic diameter−LV end-systolic diameter/LV end-diastolic diameter and expressed in %. […] All parameters were measured manually. […]

[2] = target: T2, native DPP3 from blood cells (Homo sapiens, UniProt Q9NY33); test: DPP3 inhibition curve (FIG. 7); assay type: biochemical; conditions: against 15 ng/ml DPP3
T2 construct: from tissue; host or cells: blood cells
T2 sequence (Q9NY33 1-737): T1 sequence (Q9NY33 1-737)

DPP3 = target: T3, DPP3 (Homo sapiens, UniProt Q9NY33); test: Western Blot analysis of binding specificity in blood cell lysate; conditions: AK1967 as primary antibody
T3 construct: from tissue; host or cells: lysate of blood cells from human EDTA-blood
T3 sequence (Q9NY33 1-737): T1 sequence (Q9NY33 1-737)
Description: Blood cells from human EDTA-blood were washed (3× in PBS), diluted in PBS and lysed by repeated freeze-thaw-cycles. […] Dilutions of blood cell lysate (1:40, 1:80, 1:160 and 1:320) and of purified recombinant human His-DPP3 (31.25-500 ng/ml) were subjected to SDS-PAGE and Western Blot. The blots were incubated in 1.) blocking buffer (1×PBS-T with 5% skim milk powder), 2.) primary antibody solution (AK1967 1:2.000 in blocking buffer) and 3.) HRP labelled secondary antibody (goat anti mouse IgG, 1:1.000 in blocking buffer). Bound secondary antibody was detected using the Amersham ECL Western Blotting Detection Reagent and the Amersham Imager 600 UV (both from GE Healthcare).

[3] = target: T1, Recombinant GST-tagged hDPP3; test: hDPP3 inhibition analysis (DPP3 activity assay, Arg-Arg-βNA); assay type: biochemical; conditions: 25 ng/ml GST-DPP3, 10 μg antibody
Description: To analyze the capability of DPP3 inhibition by the different antibodies and antibody clones a DPP3 activity assay with known procedure (Jones et al., 1982) was performed. Recombinant GST-tagged hDPP3 was diluted in assay buffer (25 ng/ml GST-DPP3 in 50 mM Tris-HCl, pH7,5 and 100 μM ZnCl2) and 200 μl of this solution incubated with 10 μg of the respective antibody at room temperature. After 1 hour of pre-incubation, fluorogenic substrate Arg-Arg-βNA (20 μl, 2 mM) was added to the solution and the generation of free βNA over time was monitored using the Twinkle LB 970 microplate fluorometer (Berthold Technologies GmbH & Co. KG) at 37° C. Fluorescence of βNA is detected by exciting at 340 nm and measuring emission at 410 nm. Slopes (in RFU/min) of increasing fluorescence of the different samples are calculated. The slope of GST-hDPP3 with buffer control is appointed as 100% activity. The inhibitory ability of a possible capture-binder is defined as the decrease of GST-hDPP3 activity by incubation with said capture-binder in percent.

[4] = system: isoproterenol-induced heart failure mice; test: Isoproterenol-induced heart failure in mice; assay type: in vivo, mouse; conditions: 10 mg/kg i.v.; within the first hour after administration
Description: Acute heart failure was induced in male mice at 3 months of age by two daily subcutaneous injections of 300 mg/kg of Isoproterenol, a non-selective β-adrenergic agonist (DL-Isoproterenol hydrochloride, Sigma Chemical Co) (ISO) for two days (Vergaro et al, 2016). The ISO dilution was performed in NaCl 0.9%. Isoproterenol-treated mice were randomly assigned to two groups (Table 10) and PBS or Procizumab (10 mg/kg) were injected intravenously after baseline echocardiography (Gao et al., 2011) and renal resistive index measurements (Lubas et al., 2014, Dewitte et al, 2012) were performed at day 3 (FIGS. 11 A and B). Cardiac function was assessed by echocardiography (Gao et al., 2011) and by the renal resistive index (Lubas et al., 2014, Dewitte et al, 2012) at 1 hour, 6 hours and 24 hours (FIGS. 11 A and B). The group of mice that was injected with vehicle (PBS) instead of isoproterenol was subjected to no further pharmacological treatment and served as the control group (Table 10).

[5] = system: mice with CLP-induced sepsis; conditions: pre-treatment, cited from earlier work
endotoxemic rats = conditions: pre-treatment; cited from earlier work
[6] = system: patients with septic shock; test: AdrenOSS-2 phase II trial in patients with septic shock and elevated adrenomedullin: mortality vs placebo; assay type: in vivo, human
[7] = system: patients with septic shock; test: as above; assay type: in vivo, human; conditions: for HR 28-day all-cause mortality: vs placebo
Description: AdrenOSS-2 is a double-blind, placebo-controlled, randomized, multicenter, proof of concept and dose-finding phase II clinical trial to investigate the safety, tolerability and efficacy of the N-terminal ADM antibody named Adrecizumab in patients with septic shock and elevated adrenomedullin (Geven et al. BMJ Open 2019; 9:e024475). In total, 301 patients with septic shock and bio-ADM concentration >[…] were randomized (2:1:1) to treatment with a single intravenous infusion over approximately 1 hour with either placebo (n=152), adrecizumab […]/kg (n=72) or adrecizumab […]/kg (n=77). All-cause mortality within 28 (90) days after inclusion was 25.8% (34.8%). Mean age was 68.4 years and 61% were male. For the per protocol analysis, n=294 patients remained eligible, and 14-day all-cause mortality rate was 18.5%.
To validate the findings from example 9 and for proof of concept, the different lower thresholds for DPP3 at baseline (day 1) were assessed for efficacy of the anti-ADM antibody (Adrecizumab) therapy in the septic shock population with high bio-ADM from the AdrenOSS-2 study cohort and patients with a DPP3 plasma value above the different lower thresholds were excluded from the analyses. Efficacy of the anti-ADM antibody therapy was specifically assessed to what concerns the mortality endpoint in the placebo and treated arms.
The DPP3 plasma levels in septic shock with high bio-ADM (above […]) patients (n=298) at baseline and in the following 144 h were statistically analysed with the aim of determining a DPP3 threshold at baseline to assess anti-ADM antibody therapy efficacy. Patients above the respective DPP3 plasma thresholds were excluded from the analyses. Different DPP3 plasma concentration thresholds have been applied for 28-day all-cause mortality evaluation using Kaplan-Meier plots comparing anti-ADM antibody therapy vs. placebo. The log-rank test was chosen for showing differences in mortality rates among treatment groups. Hazard ratios (HR) were calculated for each DPP3 plasma concentration threshold to estimate the reduction in mortality risk imposed by anti-ADM antibody therapy relative to placebo.

[8] = phase I study; cited from earlier work

Clone 1967: anti-DPP3 monoclonal antibody, clone 1967 of SEQ ID No.: 37 (AK1967; Procizumab); humanized chains SEQ ID No. 47 and 48
hDPP3 binding [RLU] [1]: 113.736 RLU
mortality rate (Male Wistar rats): drastically improves; also recorded: drastically reduces
shortening fraction (Male Wistar rats): instant normalization; also recorded: drastically improves
IC50 of DPP3 inhibition [2]: about 15 ng/ml
binding specificity in lysate of blood cells (DPP3): no other unspecific binding takes place
Max. inhibition of hDPP3 [3]: 70%
heart function (shortening fraction) [4]: improved; also recorded: restores heart function

Adrecizumab: humanized N-terminal anti-ADM antibody; heavy chain SEQ ID NO: 32, light chain SEQ ID NO: 33
7-day survival ([5]; repeated dose administration, control 0%): 40%
7-day survival ([5]; single dose, control 10%): 50%
renal vascular leakage [5]: attenuated
renal vascular leakage (endotoxemic rats): attenuated
HR 14-day mortality ([6]; DPP3 <50 ng/mL on admission): 0.426
HR 14-day mortality ([6]; DPP3 <40): 0.385
HR 14-day mortality ([6]; DPP3 <60): 0.449
HR 14-day mortality ([6]; DPP3 <70): 0.546
HR 14-day mortality ([6]; DPP3 >50 ng/mL): 1.69
HR 14-day mortality ([6]; DPP3 >40): 1.35
HR 14-day mortality ([6]; DPP3 >60): 1.62
HR 14-day mortality ([6]; DPP3 >70): 1.24
HR 28-day all-cause mortality ([6]; baseline DPP3 threshold 50 ng/ml): 0.606
28-day all-cause mortality compared to the placebo arm ([7]; DPP3 below 30 ng/ml (n=195)): significantly reduced
28-day all-cause mortality compared to the placebo arm ([7]; DPP3 below 50 ng/ml): lower than the placebo arm
28-day all-cause mortality compared to the placebo arm ([7]; DPP3 below 50 ng/ml at baseline and continuously low (<50 ng/ml) during the next 144 h): significantly lower
HR 28-day all-cause mortality ([7]; baseline DPP3 threshold 22 ng/ml): 0.258
HR 28-day all-cause mortality ([7]; baseline DPP3 threshold 30 ng/ml): 0.309
HR 28-day all-cause mortality ([7]; baseline DPP3 threshold 40 ng/ml): 0.568
serious adverse events [8]: no serious adverse events were observed
